Test system: GBS laboratory strains
Experiment: MBC90:MIC90 ratio method of determining antibiotic tolerance
Format: cell-based, Group B Streptococcus
Settings: for MBC / MIC / MIC90: Streptococcus; for MBC: 24 h, ≧90% non-viable cells, plate counts after 24 h antibiotic; for MIC: ≧90% growth-inhibited, OD600; for MIC90: for GBS, as stated under culture conditions
Description: The inventors ascertained the incidence of antibiotic tolerance in GBS clinical isolates collected from cervicovaginal-rectal swabs, by investigating cell wall inhibitors used to eliminate GBS colonization in pregnant women before delivery as stated by the CDC guidelines. A ratio of the minimum bactericidal concentration (MBC) over minimum inhibitory concentration (MIC) after 24 h of antibiotic incubation or by determining quantitative kill curves has been used to define antibiotic tolerance previously.
The MBC:MIC ratio was calculated for laboratory strains using three β-lactam antibiotics (Penicillin G, Ampicillin, and Cefazolin) and a glycopeptide antibiotic (Vancomycin) (Table 1). Early-log phase cultures of GBS were treated with the individual antibiotics at a concentration of 0.25 to 512×MIC90. The optical density (OD600) of antibiotic treated cultures was used to determine the MIC90 after 24 h and a cell count was used to determine their MBC90. Susceptible, tolerant and intermediate strains were defined by their MBC:MIC ratio of ≦2:1, ≧32:1 and 4:1-16:1 respectively. […] The ratios characterized GBS strains A909 and 2603V/R as Susceptible, O90R as Tolerant, and NEM316 as Intermediate to Penicillin, Ampicillin, and Cefazolin. All four strains were susceptible to Vancomycin.
(I) Bacterial Strains and Culture Conditions. GBS strains A909 (serotype IA), 515 (serotype IA), NEM316 (serotype III), COHI (serotype III), 2603V/R (serotype V) and O90R (non-typable) were used in this study. E. coli Top10 cells were used for the recombination experiments. GBS was cultured in Todd Hewitt broth (THB) or Tryptic Soy 5% sheep blood (TS) media and E. coli in Luria-broth (LB) medium or agar. Antibiotics were used at the following concentrations: for GBS—penicillin G (MIC90 0.06 μg ml^−1), ampicillin (MIC90 0.12 μg ml^−1), vancomycin (MIC90 2 μg ml^−1), cefazolin (MIC90 1 μg ml^−1) and chloramphenicol (5 μg ml^−1); for E. coli—ampicillin (50 μg ml^−1) and chloramphenicol (5 μg ml^−1). Both GBS and E. coli cultures were grown at 37° C. (II) Tolerance Using the MBC:MIC Ratio Method. Three GBS laboratory strains (i.e., A909, NEM316, and O90R) were cultured overnight for 18 h at 37° C. in THB. Subcultures in THB were subsequently grown to exponential phase (OD600˜0.3; i.e. 5×10^5 cfu/ml) at 37° C. Cell cultures were then exposed to different concentrations of antibiotics (Penicillin G, Ampicillin, Cefozolin or Vancomycin). […] Cell cultures were dispersed every 18 h before OD600 was measured to determine the lowest concentration of antibiotic with 90% growth inhibition (MIC90). Antibiotic treated cells (8 μl) from each well were re-suspended into PBS (100 μl) and plated (54 μl) on TS agar plates and allowed to grow for an additional 24 h at 37° C. Cell count was performed to determine the lowest concentration of antibiotic with 90% killing of original inoculums (MBC90). (III) Penicillin Killing and Regrowth Tolerance Assay by Microbroth Dilution. Three GBS laboratory strains (i.e., A909, NEM316, and O90R) were cultured overnight for 18 h at 37° C. in THB. Subcultures in THB were subsequently grown to exponential phase (OD600˜0.3) at 37° C. Cell cultures were then exposed to different concentrations of Penicillin G (Sigma, St. Louis, Mo.). […] Cell cultures were dispersed. A 1:20 dilution of cells was re-plated into new wells containing fresh THB with 500 U Penase (to degrade residual penicillin). Cell cultures were allowed to re-grow for an additional 24 h at 37° C. before the OD600 was measured. (IV) Measuring Cell Viability by Determining ATP Concentration. GBS strains were cultured for 18 h at 37° C. in THB. These cells were inoculated into fresh THB and subsequently allowed to grow to exponential phase (OD600 0.25-0.3) at 37° C. One ml of each culture was centrifuged at 5,000×g for 4 min. The cell pellet was re-suspended in ATP-free water. […]

| Structure (SMILES) | Ratio (MBC90:MIC90) (GBS strain 2603V/R) | Ratio (MBC90:MIC90) (GBS strain A909) | Ratio (MBC90:MIC90) (GBS strain NEM316) | Ratio (MBC90:MIC90) (GBS strain O90R) | MBC (GBS strain 2603V/R) | MBC (GBS strain A909) | MBC (GBS strain NEM316) | MBC (GBS strain O90R) | MIC (GBS strain 2603V/R) | MIC (GBS strain A909) | MIC (GBS strain NEM316) | MIC (GBS strain O90R) | MIC90 |
| --- | --- | --- | --- | --- | --- | --- | --- | --- | --- | --- | --- | --- | --- |
| Cc1nnc(SCC2=C(C(=O)O)N3C(=O)[C@@H](NC(=O)Cn4cnnn4)[C@H]3SC2)s1 [Cefazolin] | 2 | 1 | 16 | 32 | 0.39 µg/mL | 0.19 µg/mL | 3.12 µg/mL | 12.5 µg/mL | 0.19 µg/mL | 0.19 µg/mL | 0.19 µg/mL | 0.39 µg/mL | 1 µg/mL |
| CN[C@H](CC(C)C)C(=O)N[C@H]1C(=O)N[C@@H](CC(N)=O)C(=O)N[C@H]2C(=O)N[C@H]3C(=O)N[C@H](C(=O)N[C@H](C(=O)O)c4cc(O)cc(O)c4-c4cc3ccc4O)[C@H](O)c3ccc(c(Cl)c3)Oc3cc2cc(c3O[C@@H]2O[C@H](CO)[C@@H](O)[C@H](O)[C@H]2O[C@H]2C[C@](C)(N)[C@H](O)[C@H](C)O2)Oc2ccc(cc2Cl)[C@H]1O [Vancomycin] | 1 | 1 | 1 | 1 | 4 µg/mL | 4 µg/mL | 4 µg/mL | 4 µg/mL | 4 µg/mL | 4 µg/mL | 4 µg/mL | 4 µg/mL | 2 µg/mL |
| CC1(C)S[C@@H]2[C@H](NC(=O)[C@H](N)c3ccccc3)C(=O)N2[C@H]1C(=O)O [Ampicillin] | 1 | 1 | 4 |  | 0.48 µg/mL | 0.48 µg/mL | 1.92 µg/mL | 15.4 µg/mL | 0.48 µg/mL | 0.48 µg/mL | 0.48 µg/mL | 0.96 µg/mL | 0.12 µg/mL |

— patent US8247170B2, “Detection of penicillin tolerance in Group B Streptococcus: single nucleotide polymorphisms in penicillin binding protein 4” (priority 2008, dated 2012)
